Patent US20230321123A1, “INHIBITORS OF PSEUDOMONAS AERUGINOSA VIRULENCE FACTOR LasB” (Helmholtz-Zentrum Für Infektionsforschung GmbH, priority 2020, published 2023)

Assays:
LasB = LasB (Pseudomonas aeruginosa, UniProt Q02RJ6); test: biochemical; parameters: species or system P. aeruginosa; details: IC50 against LasB
MMP-3 = MMP-3 (Homo sapiens, UniProt P08254); test: Selectivity against human off-targets: MMP-3; type: biochemical; details: read-out: Inhibition [%] MMP-3
Description: (§1) The inhibition of zinc-containing human enzymes is described frequently for LasB inhibitors and poses a serious difficulty in the development of selective compounds. Particularly, the inhibition of matrix metalloproteases (MMPs) should be avoided. To further investigate this issue, three derivatives (the compounds of examples 1, 5 and 8) have been tested for their selectivity against several human off-targets, including six MMPs, ADAM17 (TACE), HDAC-3 and HDAC-8 (Table 4). The selectivity of the compounds is particularly high for MMPs and HDACs, whereas the inhibition of ADAM17 was considerably stronger.

MMP-7 = target: T1, MMP-7 (Homo sapiens, UniProt P09237); test: Selectivity against human off-targets: MMP-7; type: biochemical; details: read-out: Inhibition [%] MMP-7
T1 sequence (P09237 95-267): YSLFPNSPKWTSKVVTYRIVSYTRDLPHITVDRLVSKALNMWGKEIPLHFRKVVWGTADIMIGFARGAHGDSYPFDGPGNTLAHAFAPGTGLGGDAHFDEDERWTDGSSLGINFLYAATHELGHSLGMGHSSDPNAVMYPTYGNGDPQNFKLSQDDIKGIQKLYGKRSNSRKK
Description: as §1

MMP-8 = MMP-8 (Homo sapiens, UniProt P22894); test: Selectivity against human off-targets: MMP-8; type: biochemical; details: read-out: Inhibition [%] MMP-8
Description: as §1

MMP-14 = MMP-14 (Homo sapiens, UniProt P50281); test: Selectivity against human off-targets: MMP-14; type: biochemical; details: read-out: Inhibition [%] MMP-14
Description: as §1

ADAM17 (TACE) = ADAM17 (TACE) (Homo sapiens, UniProt P78536); test: Selectivity against human off-targets: ADAM17 (TACE); type: biochemical; details: read-out: IC50 ADAM17 (TACE)
HDAC-3 = HDAC-3 (Homo sapiens, UniProt O15379); test: Selectivity against human off-targets: HDAC-3; type: biochemical; details: read-out: IC50 HDAC-3
Description: as §1

HDAC-8 = target: T2, HDAC-8 (Homo sapiens, UniProt Q9BY41); test: Selectivity against human off-targets: HDAC-8; type: biochemical; details: read-out: IC50 HDAC-8
T2 sequence (Q9BY41 1-377): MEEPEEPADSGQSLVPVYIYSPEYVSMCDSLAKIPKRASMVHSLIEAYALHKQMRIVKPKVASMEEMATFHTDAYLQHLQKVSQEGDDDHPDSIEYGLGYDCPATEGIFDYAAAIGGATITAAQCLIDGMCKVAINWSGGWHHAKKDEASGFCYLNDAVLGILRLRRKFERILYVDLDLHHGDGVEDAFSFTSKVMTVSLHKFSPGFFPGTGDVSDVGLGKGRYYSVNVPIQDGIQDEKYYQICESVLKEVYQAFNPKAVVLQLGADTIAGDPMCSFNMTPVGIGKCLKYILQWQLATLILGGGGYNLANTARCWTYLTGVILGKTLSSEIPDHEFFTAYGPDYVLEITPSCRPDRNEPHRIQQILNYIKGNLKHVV
Description: as §1

Cytotoxicity HepG2 = type: cell-based; details: human; HepG2
Method: (§2) The compounds of examples 1 and 5 were not toxic against the cell lines HepG2, HEK293 and A549 (Table 5). Additionally, the inhibitory effect against P. aeruginosa PA14 was evaluated to exclude an antibacterial effect of the compounds of the present invention. This is important as it was the aim to target virulence and not viability of the bacteria. […]

Cytotoxicity HEK293 = type: cell-based; details: human; HEK293
Method: as §2

Cytotoxicity A549 = type: cell-based; details: human; A549
Method: as §2

hERG potassium channel = hERG potassium channel (Homo sapiens, UniProt Q12809); test: hERG inhibition; type: biochemical
Description: (§3) As the compound of example 2 has shown an impressive activity in the in vitro LasB inhibition assay, high selectivity over a broad spectrum of human enzymes and no signs of cytotoxicity in vitro, it has been subjected to a more advanced safety screening (Table 9).

CYP1A = target: T3, CYP1A (Homo sapiens, UniProt P05177); test: CYP inhibition CYP1A; type: in vitro ADME
T3 sequence (P05177 2-516): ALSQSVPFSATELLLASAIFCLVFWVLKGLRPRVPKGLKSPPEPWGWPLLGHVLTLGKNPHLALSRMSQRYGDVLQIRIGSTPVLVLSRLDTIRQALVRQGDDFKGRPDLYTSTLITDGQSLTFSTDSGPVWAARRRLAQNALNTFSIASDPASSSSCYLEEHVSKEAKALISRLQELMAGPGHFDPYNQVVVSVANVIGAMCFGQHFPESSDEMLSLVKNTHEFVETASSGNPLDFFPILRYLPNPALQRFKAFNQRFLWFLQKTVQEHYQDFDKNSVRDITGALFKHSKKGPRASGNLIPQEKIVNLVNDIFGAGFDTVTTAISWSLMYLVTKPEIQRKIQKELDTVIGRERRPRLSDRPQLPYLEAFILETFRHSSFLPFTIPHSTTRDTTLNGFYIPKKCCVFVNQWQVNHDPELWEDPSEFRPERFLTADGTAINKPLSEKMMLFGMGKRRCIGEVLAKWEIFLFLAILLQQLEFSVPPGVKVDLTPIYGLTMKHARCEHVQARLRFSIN
Description: as §3

CYP2C9 = CYP2C9 (Homo sapiens, UniProt P11712); test: CYP inhibition CYP2C9; type: in vitro ADME
Description: as §3

CYP2C19 = CYP2C19 (Homo sapiens, UniProt P33261); test: CYP inhibition CYP2C19; type: in vitro ADME
Description: as §3

CYP2D6 = CYP2D6 (Homo sapiens, UniProt P10635); test: CYP inhibition CYP2D6; type: in vitro ADME
Description: as §3

[1] = mini-Ames reverse mutation assay; type: cell-based; details: up to 125 μg/mL
Description: as §3

[2] = Pharmacokinetic (PK) studies in mice; type: in vivo; details: 10 mg/kg
Method: Moreover, the compound of example 2 was subjected to pharmacokinetic (PK) studies in mice (Table 10). Injected intravenously (i.v.) at a dose of 10 mg/kg, it is detectable in blood for 2 h.

Sequence of CYP2D6 (P10635 whole entry): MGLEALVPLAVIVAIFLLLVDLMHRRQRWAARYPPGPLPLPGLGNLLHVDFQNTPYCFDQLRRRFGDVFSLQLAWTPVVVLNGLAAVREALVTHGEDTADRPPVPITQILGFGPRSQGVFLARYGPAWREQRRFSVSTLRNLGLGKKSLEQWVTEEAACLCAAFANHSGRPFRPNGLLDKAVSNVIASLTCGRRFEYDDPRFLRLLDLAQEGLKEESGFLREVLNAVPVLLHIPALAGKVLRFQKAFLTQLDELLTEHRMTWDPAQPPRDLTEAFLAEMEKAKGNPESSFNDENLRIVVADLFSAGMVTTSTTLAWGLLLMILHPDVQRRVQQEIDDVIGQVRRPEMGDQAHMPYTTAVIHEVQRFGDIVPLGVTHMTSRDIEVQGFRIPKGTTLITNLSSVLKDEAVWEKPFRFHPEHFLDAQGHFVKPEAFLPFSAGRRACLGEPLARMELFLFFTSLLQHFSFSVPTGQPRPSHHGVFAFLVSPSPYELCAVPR
Sequence of HDAC-3 (O15379 whole entry): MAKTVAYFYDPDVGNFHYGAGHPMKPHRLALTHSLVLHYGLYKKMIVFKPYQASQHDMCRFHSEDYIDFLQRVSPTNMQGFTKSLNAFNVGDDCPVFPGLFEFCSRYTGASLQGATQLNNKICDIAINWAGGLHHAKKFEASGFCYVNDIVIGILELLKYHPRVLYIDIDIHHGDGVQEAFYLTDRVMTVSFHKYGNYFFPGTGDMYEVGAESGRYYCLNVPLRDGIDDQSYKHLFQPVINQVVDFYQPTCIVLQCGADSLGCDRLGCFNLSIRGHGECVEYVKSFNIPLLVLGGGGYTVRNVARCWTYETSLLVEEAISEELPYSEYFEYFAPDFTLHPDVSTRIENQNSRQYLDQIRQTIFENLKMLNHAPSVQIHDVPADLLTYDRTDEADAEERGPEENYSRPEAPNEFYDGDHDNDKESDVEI
Sequence of HDAC-3 (Q9Y618 395-489 partner limits assumed): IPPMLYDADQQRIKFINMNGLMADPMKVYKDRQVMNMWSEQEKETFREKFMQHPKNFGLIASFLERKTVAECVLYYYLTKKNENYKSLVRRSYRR
Sequence of ADAM17 (TACE) (P78536 215-824): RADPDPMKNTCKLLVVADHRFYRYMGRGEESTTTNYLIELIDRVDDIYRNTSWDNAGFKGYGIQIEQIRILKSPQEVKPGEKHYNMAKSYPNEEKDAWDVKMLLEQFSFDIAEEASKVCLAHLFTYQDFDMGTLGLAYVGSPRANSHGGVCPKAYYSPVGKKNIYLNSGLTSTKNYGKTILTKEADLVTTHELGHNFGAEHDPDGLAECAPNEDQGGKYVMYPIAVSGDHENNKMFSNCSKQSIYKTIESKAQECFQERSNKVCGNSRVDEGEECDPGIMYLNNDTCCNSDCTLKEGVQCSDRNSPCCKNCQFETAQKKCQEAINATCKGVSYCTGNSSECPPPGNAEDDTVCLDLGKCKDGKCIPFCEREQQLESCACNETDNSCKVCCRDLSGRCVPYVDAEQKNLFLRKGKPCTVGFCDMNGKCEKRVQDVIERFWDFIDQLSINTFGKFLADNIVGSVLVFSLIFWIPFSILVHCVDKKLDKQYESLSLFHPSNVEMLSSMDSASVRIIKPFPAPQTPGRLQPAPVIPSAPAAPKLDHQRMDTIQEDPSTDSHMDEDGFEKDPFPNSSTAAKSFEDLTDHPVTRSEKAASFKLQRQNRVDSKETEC
Sequence of CYP2C19 (P33261 whole entry): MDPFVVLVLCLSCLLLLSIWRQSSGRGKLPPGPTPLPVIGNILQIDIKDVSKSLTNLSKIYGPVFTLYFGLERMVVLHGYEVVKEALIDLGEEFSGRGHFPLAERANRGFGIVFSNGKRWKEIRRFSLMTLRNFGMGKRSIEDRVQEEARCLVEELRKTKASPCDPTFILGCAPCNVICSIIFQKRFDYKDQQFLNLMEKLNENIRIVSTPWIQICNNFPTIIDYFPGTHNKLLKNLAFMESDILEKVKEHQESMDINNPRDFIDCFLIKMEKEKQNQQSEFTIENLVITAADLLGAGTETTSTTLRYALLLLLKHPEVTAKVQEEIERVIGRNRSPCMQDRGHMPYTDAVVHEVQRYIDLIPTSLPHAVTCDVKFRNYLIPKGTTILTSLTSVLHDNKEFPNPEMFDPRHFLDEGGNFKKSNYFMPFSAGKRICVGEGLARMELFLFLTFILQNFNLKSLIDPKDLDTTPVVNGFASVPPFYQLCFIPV
Sequence of CYP2C9 (P11712 whole entry): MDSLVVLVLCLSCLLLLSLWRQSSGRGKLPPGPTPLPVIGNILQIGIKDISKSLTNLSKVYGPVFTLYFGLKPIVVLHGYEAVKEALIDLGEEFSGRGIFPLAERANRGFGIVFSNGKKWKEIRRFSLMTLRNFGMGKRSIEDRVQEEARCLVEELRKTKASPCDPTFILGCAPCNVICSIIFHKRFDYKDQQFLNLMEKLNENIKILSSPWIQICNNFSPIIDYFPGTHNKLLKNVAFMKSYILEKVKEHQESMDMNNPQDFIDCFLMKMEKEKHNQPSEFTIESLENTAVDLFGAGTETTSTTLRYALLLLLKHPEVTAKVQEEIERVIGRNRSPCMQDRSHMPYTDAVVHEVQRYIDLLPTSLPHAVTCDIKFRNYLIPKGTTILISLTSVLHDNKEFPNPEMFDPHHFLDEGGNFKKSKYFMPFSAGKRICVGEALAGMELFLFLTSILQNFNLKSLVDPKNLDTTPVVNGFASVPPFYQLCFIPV
Sequence of LasB (Q02RJ6 198-498): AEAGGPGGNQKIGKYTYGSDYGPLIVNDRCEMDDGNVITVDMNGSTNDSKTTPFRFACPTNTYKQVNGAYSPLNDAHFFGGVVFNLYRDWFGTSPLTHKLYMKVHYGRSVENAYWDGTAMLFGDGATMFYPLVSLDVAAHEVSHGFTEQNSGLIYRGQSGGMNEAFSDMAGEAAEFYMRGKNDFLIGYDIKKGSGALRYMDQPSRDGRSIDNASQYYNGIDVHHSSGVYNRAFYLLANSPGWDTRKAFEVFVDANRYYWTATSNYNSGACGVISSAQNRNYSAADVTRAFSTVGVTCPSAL
Sequence of MMP-8 (P22894 101-467): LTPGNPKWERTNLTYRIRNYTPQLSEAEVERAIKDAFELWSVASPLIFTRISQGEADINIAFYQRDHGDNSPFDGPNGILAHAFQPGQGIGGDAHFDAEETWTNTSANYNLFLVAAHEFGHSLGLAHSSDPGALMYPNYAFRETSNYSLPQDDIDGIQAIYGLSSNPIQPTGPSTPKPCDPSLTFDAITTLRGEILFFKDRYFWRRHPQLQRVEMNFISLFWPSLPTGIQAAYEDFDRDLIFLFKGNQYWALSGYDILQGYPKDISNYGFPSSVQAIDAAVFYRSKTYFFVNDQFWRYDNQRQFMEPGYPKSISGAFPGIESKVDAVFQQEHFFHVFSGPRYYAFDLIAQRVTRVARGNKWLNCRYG
Sequence of hERG potassium channel (Q12809 whole entry): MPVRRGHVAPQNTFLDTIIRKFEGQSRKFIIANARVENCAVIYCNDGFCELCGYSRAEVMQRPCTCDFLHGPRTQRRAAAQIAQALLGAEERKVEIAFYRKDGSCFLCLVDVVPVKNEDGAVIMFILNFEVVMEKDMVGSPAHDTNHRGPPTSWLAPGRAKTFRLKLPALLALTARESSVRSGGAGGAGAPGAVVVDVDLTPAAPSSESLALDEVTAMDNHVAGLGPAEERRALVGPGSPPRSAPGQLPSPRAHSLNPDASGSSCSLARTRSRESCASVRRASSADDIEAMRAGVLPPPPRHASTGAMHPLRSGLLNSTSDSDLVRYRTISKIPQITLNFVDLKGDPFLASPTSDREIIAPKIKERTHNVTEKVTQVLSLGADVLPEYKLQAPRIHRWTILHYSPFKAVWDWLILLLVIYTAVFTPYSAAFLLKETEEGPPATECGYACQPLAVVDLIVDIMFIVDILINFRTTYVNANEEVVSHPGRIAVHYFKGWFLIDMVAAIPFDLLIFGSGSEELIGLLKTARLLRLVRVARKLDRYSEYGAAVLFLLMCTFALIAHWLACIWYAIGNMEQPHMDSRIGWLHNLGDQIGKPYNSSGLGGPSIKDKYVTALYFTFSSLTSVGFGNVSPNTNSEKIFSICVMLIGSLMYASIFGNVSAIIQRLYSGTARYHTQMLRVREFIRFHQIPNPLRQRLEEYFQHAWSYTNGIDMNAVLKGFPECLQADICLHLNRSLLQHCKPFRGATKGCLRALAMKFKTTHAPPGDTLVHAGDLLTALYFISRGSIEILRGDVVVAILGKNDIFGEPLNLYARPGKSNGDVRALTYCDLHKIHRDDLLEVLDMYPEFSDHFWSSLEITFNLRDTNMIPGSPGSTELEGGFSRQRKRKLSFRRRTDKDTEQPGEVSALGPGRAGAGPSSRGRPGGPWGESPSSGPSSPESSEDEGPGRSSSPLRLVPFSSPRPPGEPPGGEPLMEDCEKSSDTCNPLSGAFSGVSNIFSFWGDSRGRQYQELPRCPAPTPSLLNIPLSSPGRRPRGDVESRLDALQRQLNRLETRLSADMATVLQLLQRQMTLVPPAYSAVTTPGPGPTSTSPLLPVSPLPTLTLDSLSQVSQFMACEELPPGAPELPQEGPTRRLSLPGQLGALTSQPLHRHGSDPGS
Sequence of MMP-3 (P08254 100-477): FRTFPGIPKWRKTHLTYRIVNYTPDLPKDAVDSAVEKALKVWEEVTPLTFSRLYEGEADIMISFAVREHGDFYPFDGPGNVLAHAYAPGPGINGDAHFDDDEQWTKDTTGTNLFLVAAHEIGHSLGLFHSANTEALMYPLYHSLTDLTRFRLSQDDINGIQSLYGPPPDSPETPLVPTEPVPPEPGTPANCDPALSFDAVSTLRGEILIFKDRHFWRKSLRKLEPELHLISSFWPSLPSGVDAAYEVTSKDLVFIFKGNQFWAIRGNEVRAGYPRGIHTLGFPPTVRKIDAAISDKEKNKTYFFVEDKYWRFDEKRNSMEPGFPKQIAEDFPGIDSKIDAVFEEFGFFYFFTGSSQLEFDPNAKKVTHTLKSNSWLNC

Cc1ccc(NC(=O)C(S)CC(C)C)cc1 (stereo not shown) [Example 2, 2-Mercapto-4-methyl-N-(p-tolyl)pentanamide] showed an IC50 (LasB) of 0.4 ± 0.13 µM, an inhibition at 100 µM (MMP-3) of less than 10% and an inhibition at 100 µM (MMP-7) of less than 10%. The inhibition at 100 µM (MMP-8) was less than 10%, the inhibition at 100 µM (MMP-14) was less than 10% and the IC50 (ADAM17 (TACE)) was 4.5 ± 1.8 µM. The IC50 (HDAC-3) was greater than 100 µM, the IC50 (HDAC-8) was greater than 100 µM and the IC50 (Cytotoxicity HepG2) was greater than 100 µM. For the same compound, the IC50 (Cytotoxicity HEK293) was greater than 50 µM, the IC50 (Cytotoxicity A549) was greater than 100 µM and the IC50 (hERG potassium channel) was greater than 10 µM. The IC50 (CYP1A) was greater than 25 µM, the IC50 (CYP2C9) was greater than 25 µM and the IC50 (CYP2C19) was 1 µM. The IC50 (CYP2D6) was 22.3 µM, the Mini-Ames genotoxicity [1] was “no genotoxicity and No” and the CL/F ([2]; i.v.) was 505 ± 119 mL/min/kg. The V/F ([2]; i.v.) was 45.5 ± 2.8 L/kg, the “time detectable in blood” value ([2]; i.v.) was 2 h and the AUC(0-t) ([2]; mouse, blood, iv) was 241 ± 22 ng·h/mL. It also gave a Cmax ([2]; mouse, blood, iv) of 200 ng/mL, a half-life ([2]; mouse, blood, iv) of 50 min and a Tmax ([2]; mouse, blood, iv, first measuring point) of 15 min. The melting point was 90 °C.
